pKi: −log10 of the molar value.
Biological target: T1, human isoform h5-HT4e (Homo sapiens, UniProt Q13639)
T1 construct: expressed in transfected cells; host or cells: rat glial cells, stably expressing; membranes prepared from homogenized cells
Assay: displacement of radiolabelled ligand [3H]-GR113808, affinity constant Ki
Format: binding
Details: [3H]-GR113808 0.2 nM; membranes of rat glial cells stably expressing h5-HT4e; 25° C., 30 min
Method: The compounds of the invention were evaluated by measuring their affinity constant Ki determined by displacement of a radiolabelled ligand [^3H]—GR113808 in rat glial cells stably expressing the human isoform h5-HT4e.
Confluent glial cells were washed twice with PBS and centrifuged at 300 g for 5 min. The pellet was used immediately and the cells were suspended in 10 volumes of HEPES (50 mM, pH 7.4, 4° C.) then homogenized in a teflon homogenizer and centrifuged at 40,000 g for 20 min. The pellet was again suspended in 15 volumes of HEPES. Binding displacement experiments were carried out in […] of 50 mM HEPES buffer containing 20 μl of the radiolabelled ligand [^3H]—GR113808 at a concentration of 0.2 nM for the isoform h5-HT4e or at a concentration equal to one-half the Kd of the radioligand for the other isoforms expressed in COS cells, 20 μl of competitor ligand at 7 different concentrations and 50 μl of membrane preparation (100-200 μg of protein determined by the Bradford method). Binding was carried out at 25° C. for 30 min and the reaction was stopped by rapid vacuum filtration (Brandel Harvester) on Whatman GF/B filters preincubated in 0.1% PEI to reduce nonspecific binding.
Membrane-bound radioactivity was retained on the filter, which was cut and washed with cold buffer (50 mM Tris-HCl, pH 7.4) and incubated overnight in 4 ml of scintillation fluid. Radioactivity was measured in a liquid scintillation counter (Beckmann LS 6500C). Binding data were obtained by computer-assisted linear regression. (Graph Prism Program, Graph Pad Software. Inc., San Diego, Calif.)

T1 sequence (Q13639 1-378 isoform Q13639-5): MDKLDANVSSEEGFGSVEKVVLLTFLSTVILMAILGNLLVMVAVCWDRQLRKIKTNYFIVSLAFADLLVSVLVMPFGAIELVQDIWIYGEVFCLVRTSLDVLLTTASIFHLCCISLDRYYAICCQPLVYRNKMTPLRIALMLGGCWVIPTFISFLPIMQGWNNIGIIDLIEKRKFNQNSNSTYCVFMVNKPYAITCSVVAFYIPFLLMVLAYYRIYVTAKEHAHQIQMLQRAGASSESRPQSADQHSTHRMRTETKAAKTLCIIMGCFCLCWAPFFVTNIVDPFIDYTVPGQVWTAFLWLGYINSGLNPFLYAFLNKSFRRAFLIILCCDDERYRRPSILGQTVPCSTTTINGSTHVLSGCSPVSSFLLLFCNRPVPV

SMILES | pKi
CCOc1ccccc1NC(=O)OCCN1CCN(c2cccc(NC(=O)C3=CCCN(C)C3)c2)CC1 [Example 21, 2-(4-{3-[(1-methyl-1,2,5,6-tetrahydro-pyridine-3-carbonyl)-amino]-phenyl}-piperazin-1-yl)-ethyl-N-(2-ethoxy-phenyl)carbamate] | 9.89
CCOc1ccccc1NC(=O)OCCN1CCN(c2cccc(NC(=O)C(N)Cc3ccc(O)cc3)c2)CC1 (centres unmarked) [Example 44, 2-(4-{3-[2-amino-3-(4-hydroxy-phenyl)-propionylamino]-phenyl}-piperazin-1-yl)-ethyl-N-(2-ethoxy-phenyl)carbamate] | 9.74
CCOc1ccccc1NC(=O)OCCN1CCN(c2cccc(NC(=O)NCC3CCCN3CC)c2)CC1 (centres unmarked) [Example 57, 2-(4-{3-[3-(1-ethyl-pyrrolidin-2-ylmethyl)-ureido]-phenyl}-piperazin-1-yl)-ethyl-N-(2-ethoxy-phenyl)carbamate] | 10.05
CCOc1ccccc1NC(=O)OCCN1CCN(c2cccc(NC(=O)CCN)c2)CC1 [Example 42, 2-{4-[3-(3-amino-propionylamino)-phenyl]-piperazin-1-yl}-ethyl-N-(2-ethoxy-phenyl)carbamate] | 9.77
CCOc1ccccc1NC(=O)OCCN1CCN(c2cccc(NC(=O)N3CCC(N4CCCC4)CC3)c2)CC1 [Example 59, 2-(4-{3-[(4-pyrrolidin-1-yl-piperidine-1-carbonyl)-amino]-phenyl}-piperazin-1-yl)-ethyl-N-(2-ethoxy-phenyl)carbamate] | 9.62

Further lines, results first:

pKi | SMILES
9.12 | CCOc1ccccc1NC(=O)OCCN1CCN(c2cccc(C(=O)N(C)CCN(C)C)c2)CC1 [Example 105, 2-(4-{3-[(2-dimethylamino-ethyl)-methyl-carbamoyl]-phenyl}-piperazin-1-yl)-ethyl N-(2-ethoxy-phenyl)-carbamate]
9.80 | CCOc1ccccc1NC(=O)OCCN1CCN(c2cccc(C(=O)NCCN3CCCCC3)c2)CC1 [Example 78, 2-(4-{3-[2-piperidin-1-yl-ethylcarbamoyl]-phenyl}-piperazin-1-yl)-ethyl-N-(2-ethoxy-phenyl)carbamate]
9.70 | CCOc1ccccc1NC(=O)OCCN1CCN(c2cccc(NC(=O)NCCCN3CCN(C)CC3)c2)CC1 [Example 60, 2-[4-(3-{3-[3-(4-methyl-piperazin-1-yl)-propyl]-ureido}-phenyl)-piperazin-1-yl]-ethyl-N-(2-ethoxy-phenyl)carbamate]

Reference: US20050267126A1, “Compounds derived from aryl carbamates, preparation thereof and uses of same” (priority 2002, published 2005)
